Results as given in ChEMBL document CHEMBL4393697, “Lipophilic efficient phenylthiazoles with potent undecaprenyl pyrophosphatase inhibitory activity” (Eur J Med Chem, 2019).
≈ marks a conversion by molar mass, not a printed value.

Assays:
[1] = Solubility of compound in PBS after 2 hrs by turbidity based absorbance analysis; type: physicochemical
Staphylococcus aureus [2] = test: Antibacterial activity against methicillin resistant Staphylococcus aureus USA400 assessed as reduction in bacterial cell growth incubated for 18 to 20 hrs by broth microdilution method; type: functional
Staphylococcus aureus [3] = test: Bactericidal activity against Staphylococcus aureus NRS107 assessed as reduction in bacterial cell growth incubated for 18 to 20 hrs followed by re-plating on tryptic soy agar plates at 37 degC for 18 hrs by broth microdilution assay; type: functional
Enterococcus faecium [4] = test: Bactericidal activity against vancomycin resistant Enterococcus faecium ATCC 700221 assessed as reduction in bacterial cell growth incubated for 18 to 20 hrs followed by re-plating on tryptic soy agar plates at 37 degC for 18 hrs by broth microdilution assay; type: functional
Staphylococcus aureus [5] = test: Bactericidal activity against vancomycin resistant Staphylococcus aureus VRS12 assessed as reduction in bacterial cell growth incubated for 18 to 20 hrs followed by re-plating on tryptic soy agar plates at 37 degC for 18 hrs by broth microdilution assay; type: functional
Staphylococcus aureus [6] = test: Antibacterial activity against vancomycin resistant Staphylococcus aureus VRS11a assessed as reduction in bacterial cell growth incubated for 18 to 20 hrs by broth microdilution method; type: functional
Staphylococcus aureus [7] = test: Bactericidal activity against Staphylococcus aureus ATCC 6538 assessed as reduction in bacterial cell growth incubated for 18 to 20 hrs followed by re-plating on tryptic soy agar plates at 37 degC for 18 hrs by broth microdilution assay; type: functional
Staphylococcus aureus [8] = test: Antibacterial activity against vancomycin resistant Staphylococcus aureus VRS12 assessed as reduction in bacterial cell growth incubated for 18 to 20 hrs by broth microdilution method; type: functional
Listeria monocytogenes [9] = test: Antibacterial activity against Listeria monocytogenes ATCC 19111 assessed as reduction in bacterial cell growth incubated for 18 to 20 hrs by broth microdilution method; type: functional
Enterococcus faecalis = test: Bactericidal activity against vancomycin resistant Enterococcus faecalis ATCC 51299 assessed as reduction in bacterial cell growth incubated for 18 to 20 hrs followed by re-plating on tryptic soy agar plates at 37 degC for 18 hrs by broth microdilution assay; type: functional
Staphylococcus aureus [10] = test: Bactericidal activity against vancomycin resistant Staphylococcus aureus VRS11a assessed as reduction in bacterial cell growth incubated for 18 to 20 hrs followed by re-plating on tryptic soy agar plates at 37 degC for 18 hrs by broth microdilution assay; type: functional
[11] = test system: Staphylococcus epidermidis; test: Antibacterial activity against methicillin resistant Staphylococcus epidermidis NRS101 assessed as reduction in bacterial cell growth incubated for 18 to 20 hrs by broth microdilution method; type: functional
Staphylococcus aureus [12] = test: Antibacterial activity against Staphylococcus aureus NRS107 assessed as reduction in bacterial cell growth incubated for 18 to 20 hrs by broth microdilution method; type: functional
[13] = test system: Staphylococcus epidermidis; test: Bactericidal activity against methicillin resistant Staphylococcus epidermidis NRS101 assessed as reduction in bacterial cell growth incubated for 18 to 20 hrs followed by re-plating on tryptic soy agar plates at 37 degC for 18 hrs by broth microdilution assay; type: functional
Staphylococcus aureus [14] = test: Bactericidal activity against vancomycin resistant Staphylococcus aureus VRS10 assessed as reduction in bacterial cell growth incubated for 18 to 20 hrs followed by re-plating on tryptic soy agar plates at 37 degC for 18 hrs by broth microdilution assay; type: functional
Listeria monocytogenes [15] = test: Bactericidal activity against Listeria monocytogenes ATCC 19111 assessed as reduction in bacterial cell growth incubated for 18 to 20 hrs followed by re-plating on tryptic soy agar plates at 37 degC for 18 hrs by broth microdilution assay; type: functional
Enterococcus faecium [16] = test: Antibacterial activity against vancomycin resistant Enterococcus faecium ATCC 700221 assessed as reduction in bacterial cell growth incubated for 18 to 20 hrs by broth microdilution method; type: functional
Staphylococcus aureus [17] = test: Antibacterial activity against Staphylococcus aureus ATCC 6538 assessed as reduction in bacterial cell growth incubated for 18 to 20 hrs by broth microdilution method; type: functional
Staphylococcus aureus [18] = test: Antibacterial activity against vancomycin resistant Staphylococcus aureus VRS10 assessed as reduction in bacterial cell growth incubated for 18 to 20 hrs by broth microdilution method; type: functional
Streptococcus pneumoniae [19] = test: Bactericidal activity against Cephalosporin resistant Streptococcus pneumoniae ATCC 51916 assessed as reduction in bacterial cell growth incubated for 18 to 20 hrs followed by re-plating on tryptic soy agar plates at 37 degC for 18 hrs by broth microdilution assay; type: functional
Streptococcus pneumoniae [20] = test: Bactericidal activity against Methicillin resistant Streptococcus pneumoniae ATCC 700677 assessed as reduction in bacterial cell growth incubated for 18 to 20 hrs followed by re-plating on tryptic soy agar plates at 37 degC for 18 hrs by broth microdilution assay; type: functional
Staphylococcus aureus [21] = test: Bactericidal activity against methicillin resistant Staphylococcus aureus NRS119 assessed as reduction in bacterial cell growth incubated for 18 to 20 hrs followed by re-plating on tryptic soy agar plates at 37 degC for 18 hrs by broth microdilution assay; type: functional
Staphylococcus aureus [22] = test: Antibacterial activity against methicillin resistant Staphylococcus aureus NRS119 assessed as reduction in bacterial cell growth incubated for 18 to 20 hrs by broth microdilution method; type: functional
Staphylococcus aureus [23] = test: Bactericidal activity against methicillin-resistant Staphylococcus aureus USA300 assessed as reduction in bacterial cell growth incubated for 18 to 20 hrs followed by re-plating on tryptic soy agar plates at 37 degC for 18 hrs by broth microdilution assay; type: functional
J774 = test: Cytotoxicity against mouse J774 assessed as reduction in cell viability at 16 ug/ml incubated for 24 hrs by MTS assay; type: cell-based; conditions: j774, 24 h

For `CCCCc1ccc(-c2nc(C)c(/C(C)=N/NC(=N)N)s2)cc1`, which solubility kinetic at 2 h [1] is on record?
The solubility kinetic at 2 h was 65 µM (≈ 21.4 µg/mL).

For `COc1ccccc1C#Cc1ccc(-c2nc(C)c(/C(C)=N/NC(=N)N)s2)cc1`, which MIC (Staphylococcus aureus [2]) is on record?
Its MIC is 16 mg/L (≈ 39.7 µM).

Which MIC (Staphylococcus aureus [2]) does the source give for `C/C(=N\NC(=N)N)c1sc(-c2ccc(C#Cc3cncnc3)cc2)nc1C` here?
Its MIC is over 64 mg/L.

For `C/C(=N\NC(=N)N)c1sc(-c2ccc(C#Cc3cccc([N+](=O)[O-])c3)cc2)nc1C`, which MIC (Staphylococcus aureus [2]) is on record?
Its MIC is 64 mg/L (≈ 153 µM).

For `C/C(=N\NC(=N)N)c1sc(-c2ccc(C#Cc3ccncc3)cc2)nc1C`, which MIC (Staphylococcus aureus [2]) is on record?
The MIC was over 64 mg/L.

Which MIC (Staphylococcus aureus [2]) does the source give for `C/C(=N\NC(=N)N)c1sc(-c2ccc(C#Cc3ccoc3)cc2)nc1C` here?
The MIC was 4 mg/L (≈ 11 µM).

What does the source list for `CC(=O)NC[C@H]1CN(c2ccc(N3CCOCC3)c(F)c2)C(=O)O1` [LINEZOLID]?
MBC (Staphylococcus aureus [3]): 16 mg/L (≈ 47.4 µM); MBC (Enterococcus faecium [4]): 8 mg/L (≈ 23.7 µM); MBC (Staphylococcus aureus [5]): 16 mg/L (≈ 47.4 µM); MIC (Staphylococcus aureus [6]): 1 mg/L (≈ 2.96 µM); MBC (Staphylococcus aureus [7]): 16 mg/L (≈ 47.4 µM); MIC (Staphylococcus aureus [8]): 1 mg/L (≈ 2.96 µM); MIC (Listeria monocytogenes [9]): ≤ 0.5 mg/L; MBC (Enterococcus faecalis): 32 mg/L (≈ 94.9 µM); MBC (Staphylococcus aureus [10]): 16 mg/L (≈ 47.4 µM); MIC [11]: ≤ 0.5 mg/L; MIC (Staphylococcus aureus [12]): 1 mg/L (≈ 2.96 µM); MBC [13]: 16 mg/L (≈ 47.4 µM); MBC (Staphylococcus aureus [14]): 16 mg/L (≈ 47.4 µM); MBC (Listeria monocytogenes [15]): 32 mg/L (≈ 94.9 µM); MIC (Enterococcus faecium [16]): ≤ 0.5 mg/L; MIC (Staphylococcus aureus [17]): 1 mg/L (≈ 2.96 µM); MIC (Staphylococcus aureus [18]): 1 mg/L (≈ 2.96 µM); MBC (Streptococcus pneumoniae [19]): 16 mg/L (≈ 47.4 µM); MIC (Staphylococcus aureus [2]): 1 mg/L (≈ 2.96 µM); MBC (Streptococcus pneumoniae [20]): 32 mg/L (≈ 94.9 µM); MBC (Staphylococcus aureus [21]): > 64 mg/L; MIC (Staphylococcus aureus [22]): 32 mg/L (≈ 94.9 µM); MBC (Staphylococcus aureus [23]): 32 mg/L (≈ 94.9 µM)

For `C/C(=N\NC(=N)N)c1sc(-c2ccc(C#Cc3ncccn3)cc2)nc1C`, which MIC (Staphylococcus aureus [2]) is on record?
The MIC was over 64 mg/L.

For `C/C(=N\NC(=N)N)c1sc(-c2ccc(C#Cc3ccccc3)cc2)nc1C`, which Activity (J774) is on record?
The Activity was “Toxic”.

What about the solubility kinetic at 2 h [1] of the same compound?
The solubility kinetic at 2 h was 2.5 µM (≈ 0.934 µg/mL).

For `C/C(=N\NC(=N)N)c1sc(-c2ccc(C#Cc3ccc(C(N)=O)cc3)cc2)nc1C`, which MIC (Staphylococcus aureus [2]) is on record?
Its MIC is over 64 mg/L.

With `C/C(=N/NC(=N)N)c1ccc(C#Cc2ccc(-c3nc(C)c(/C(C)=N/NC(=N)N)s3)cc2)cc1` as the compound, how does the MIC (Staphylococcus aureus [2]) read?
The MIC was over 64 mg/L.

With `C/C(=N\NC(=N)N)c1sc(-c2ccc(C#Cc3cc(O)ccc3C)cc2)nc1C` as the compound, how does the MIC (Staphylococcus aureus [2]) read?
Its MIC is over 64 mg/L.

For `C/C(=N\NC(=N)N)c1sc(-c2ccc(C#Cc3csc(C)c3C)cc2)nc1C`, which MIC (Staphylococcus aureus [2]) is on record?
Its MIC is 16 mg/L (≈ 39.3 µM).

With `C/C(=N\NC(=N)N)c1sc(-c2ccc(C#Cc3ccccc3N)cc2)nc1C` as the compound, how does the MIC (Staphylococcus aureus [2]) read?
The MIC was over 64 mg/L.

Which MIC (Staphylococcus aureus [2]) does the source give for `COc1cccc(C#Cc2ccc(-c3nc(C)c(/C(C)=N/NC(=N)N)s3)cc2)c1` here?
The MIC was 4 mg/L (≈ 9.91 µM).

With `C/C(=N\NC(=N)N)c1sc(-c2ccc(C#Cc3ccccn3)cc2)nc1C` as the compound, how does the MIC (Staphylococcus aureus [2]) read?
Its MIC is 32 mg/L (≈ 85.5 µM).
